Data on 41 compounds can be found in ChEMBL document CHEMBL1201862, “PubChem BioAssay data set” (2004).

SMILES strings stand for the structures. The source made the active and inactive calls. Rule as the data show it, for most assays here: actives have a measured EC50 and inactives only a lower limit.

A short description of assay [1]: HEp-2 cell cytotoxicity, dose response, cytotoxicity control for RSV inhibitor project, HTS (AID 2410). It is filed as functional. Conditions: human respiratory syncytial virus.
Assay [2] is described as follows: inhibitors of intracellular T. cruzi replication, confirmation, NIH3T3 host cells, beta-gal luminescence (AID 2044).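 Also: intracellular parasites grown in NIH/3T3 mouse fibroblasts as host cells; luminescent beta-galactosidase reporter signal from transgenic T. cruzi replicating inside host cells; inhibitors lower the luminescence signal.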 In kind it is functional, cell-based.
Assay [3] deals with Paired box protein Pax-8 (Homo sapiens, UniProt Q06710). As to the kind of experiment: inhibitors of PAX8-driven TPO luciferase reporter, dose response, RMG-I cells, cherry-pick (AID 687027).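 Also: luciferase reporter driven by Pax8 target thyroperoxidase promoter measured by SteadyGlo luminescence.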 It is filed as functional, cell-based.
The nature of assay [4]: cytotoxicity toward NIH3T3 fibroblasts, dose response, counter-screen, cell-based, ATP luminescence, mouse fibroblasts (AID 2010).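 Also: cells exposed to compound for about 90 hours before reading.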 In kind it is functional.
The target in assay [5] is T1, Streptokinase A (Streptococcus pyogenes serotype M1, UniProt P10520).
T1 sequence (P10520 whole entry): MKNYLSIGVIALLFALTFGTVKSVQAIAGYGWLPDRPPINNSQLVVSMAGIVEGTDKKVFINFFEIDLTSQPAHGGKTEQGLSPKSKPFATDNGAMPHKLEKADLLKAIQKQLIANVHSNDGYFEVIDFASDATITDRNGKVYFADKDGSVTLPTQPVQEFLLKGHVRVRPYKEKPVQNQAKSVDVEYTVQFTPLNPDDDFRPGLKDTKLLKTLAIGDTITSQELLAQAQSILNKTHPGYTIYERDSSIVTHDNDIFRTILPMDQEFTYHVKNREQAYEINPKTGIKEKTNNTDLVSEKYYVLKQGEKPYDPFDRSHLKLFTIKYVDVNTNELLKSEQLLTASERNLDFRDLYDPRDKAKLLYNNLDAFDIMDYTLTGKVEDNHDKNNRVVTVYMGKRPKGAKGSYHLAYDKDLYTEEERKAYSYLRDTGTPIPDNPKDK
Briefly: S. pyogenes streptokinase expression inhibitors, potency, dose response, plasminogen activation absorbance, OD405 (AID 1914).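 Also: secreted streptokinase activity via plasminogen activation per viability signal from cell pellet.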 It is filed as functional, Streptococcus pyogenes M1 GAS.

Assay [6] has as its system Streptococcus sp. 'group A'. As to the kind of experiment: growth inhibition of control SK(-) GAS strain, dose response, counter-screen for streptokinase expression inhibitor project, luminescence, kanamycin, BacTiterGlo, confirmation (AID 1900). It is filed as functional, organism-based.
The subject of assay [7] is Streptococcus. As to the kind of experiment: Group A Streptococcus viability loss, dose response, counter-screen for streptokinase expression inhibitor project, luminescence, BacTiterGlo (AID 1915).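 Also: potency for reduction of bacterial viability or growth.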 It is filed as functional, organism-based.
A short description of assay [8]: Shn3 3'UTR reporter inhibitors, dose response, cell-based, Clone20 osteoblasts, firefly luciferase, cherry-picked (AID 624132).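 Also: firefly luciferase luminescence from reporter carrying the Shn3 3'UTR in osteoblasts.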 It is filed as functional.
For assay [9], the target named is T2, Rac GTPase-activating protein 1 (Homo sapiens, UniProt Q9H0H5).
T2 sequence (Q9H0H5 whole entry): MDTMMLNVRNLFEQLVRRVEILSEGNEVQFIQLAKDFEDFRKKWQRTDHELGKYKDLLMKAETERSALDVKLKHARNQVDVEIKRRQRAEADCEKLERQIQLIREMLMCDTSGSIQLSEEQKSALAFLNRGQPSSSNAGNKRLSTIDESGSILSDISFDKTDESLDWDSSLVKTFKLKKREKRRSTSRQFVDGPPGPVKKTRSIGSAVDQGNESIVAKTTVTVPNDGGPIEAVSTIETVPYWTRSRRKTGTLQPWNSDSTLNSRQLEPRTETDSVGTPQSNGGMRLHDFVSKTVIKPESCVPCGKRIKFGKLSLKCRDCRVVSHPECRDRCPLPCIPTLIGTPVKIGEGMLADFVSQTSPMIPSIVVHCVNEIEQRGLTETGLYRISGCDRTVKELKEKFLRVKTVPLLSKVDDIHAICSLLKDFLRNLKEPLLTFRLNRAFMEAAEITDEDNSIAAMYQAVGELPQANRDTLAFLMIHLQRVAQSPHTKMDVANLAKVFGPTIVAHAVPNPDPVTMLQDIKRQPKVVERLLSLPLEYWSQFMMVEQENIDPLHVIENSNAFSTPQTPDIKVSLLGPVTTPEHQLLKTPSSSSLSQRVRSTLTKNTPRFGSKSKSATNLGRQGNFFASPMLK
As to the kind of experiment: MgcRacGAP GTPase-activating activity inhibitors, confirmation, biochemical, ADP Hunter fluorescence, primary and confirmatory (AID 624330). It is filed as functional.

The target of assay [10] is T3, Ubiquitin-conjugating enzyme E2 N (Homo sapiens, UniProt P61088).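 Also: Dose-response confirmation in a TR-FRET assay detecting UBC13-driven polyubiquitin chain formation, inhibition measured.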
T3 sequence (P61088 whole entry): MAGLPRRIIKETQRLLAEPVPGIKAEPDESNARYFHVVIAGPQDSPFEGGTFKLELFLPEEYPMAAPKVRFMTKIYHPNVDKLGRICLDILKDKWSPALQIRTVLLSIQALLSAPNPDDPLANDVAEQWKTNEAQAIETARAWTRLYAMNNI
In kind it is functional.

The target in assay [11] is Luciferin 4-monooxygenase (Photinus pyralis, UniProt P08659). Briefly: firefly luciferase enzyme inhibitors, dose response, biochemical, luminescence (AID 1891).
A short description of assay [12]: Luminescence Cell-Based Dose Confirmation HTS to Identify Inhibitors of Platelet Dense Granule Release. [Related pubchem assays: 1663 (Primary HTS), 1678 (Summary of Project)]. It is filed as functional.
Assay [13] deals with Cytochrome P450 3A4 (Homo sapiens, UniProt P08684).
A short description of assay [14]: NIH-3T3 fibroblast cytotoxicity, dose response, cytotoxicity control, cell-based, fluorescence, Alamar Blue, secondary assay (AID 2327).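 Also: NIH-3T3 mouse fibroblasts cultured with fluconazole at 8 µg/mL.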 In kind it is functional.
The nature of assay [15]: C. albicans growth with fluconazole, confirmation, fluorescence, retest (AID 2467). In kind it is functional, cell-based.
The nature of assay [16]: cells. In kind it is functional.
A short description of assay [17]: Luminescence Cell-Based Dose Response HTS to Identify Inhibitors of 5'UTR Stem-Loop Driven Prion Protein mRNA Translation in H4 Neuroglioblastoma Cells. [Related pubchem assays: 1827 (Project Summary), 1813 (Primary HTS)]. In kind it is functional.
Assay [18] is described as follows: inhibitors of firefly luciferase expression or activity, dose response, H4 neuroglioma cells, luminescence (AID 1990). It is filed as functional, cell-based.
Assay [19] is described as follows: inhibitors of SNCA 5'UTR-driven reporter translation, confirmation, H4 neuroglioma cells, luminescence (AID 1988). It is filed as functional, cell-based.

Luciferin 4-monooxygenase, sequence (P08659 whole entry): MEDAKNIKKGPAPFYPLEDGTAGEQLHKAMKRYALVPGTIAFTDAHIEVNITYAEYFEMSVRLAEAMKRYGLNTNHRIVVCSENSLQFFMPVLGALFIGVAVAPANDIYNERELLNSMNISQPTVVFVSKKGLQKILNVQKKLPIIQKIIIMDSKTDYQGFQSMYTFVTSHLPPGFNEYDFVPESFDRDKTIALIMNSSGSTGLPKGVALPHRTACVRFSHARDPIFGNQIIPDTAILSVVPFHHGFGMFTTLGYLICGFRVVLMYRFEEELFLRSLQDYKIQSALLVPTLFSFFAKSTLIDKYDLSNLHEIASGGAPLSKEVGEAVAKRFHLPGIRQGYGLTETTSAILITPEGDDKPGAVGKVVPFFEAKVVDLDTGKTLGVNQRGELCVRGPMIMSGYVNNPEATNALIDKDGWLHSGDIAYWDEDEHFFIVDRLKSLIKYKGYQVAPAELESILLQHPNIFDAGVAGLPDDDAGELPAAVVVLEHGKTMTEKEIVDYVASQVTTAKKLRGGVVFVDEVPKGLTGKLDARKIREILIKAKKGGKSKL
Paired box protein Pax-8, sequence (Q06710 whole entry): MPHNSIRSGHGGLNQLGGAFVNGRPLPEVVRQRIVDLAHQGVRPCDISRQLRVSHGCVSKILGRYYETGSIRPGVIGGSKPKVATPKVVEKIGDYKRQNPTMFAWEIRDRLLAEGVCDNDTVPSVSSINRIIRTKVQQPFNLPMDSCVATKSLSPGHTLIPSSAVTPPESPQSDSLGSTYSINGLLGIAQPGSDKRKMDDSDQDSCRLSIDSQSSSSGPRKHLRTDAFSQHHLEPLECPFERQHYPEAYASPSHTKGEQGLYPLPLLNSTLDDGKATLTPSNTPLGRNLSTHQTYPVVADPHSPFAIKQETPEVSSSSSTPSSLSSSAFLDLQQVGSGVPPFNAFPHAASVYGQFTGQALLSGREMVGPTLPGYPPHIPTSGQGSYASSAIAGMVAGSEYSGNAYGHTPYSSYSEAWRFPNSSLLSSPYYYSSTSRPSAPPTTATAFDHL
Cytochrome P450 3A4, sequence (P08684 whole entry): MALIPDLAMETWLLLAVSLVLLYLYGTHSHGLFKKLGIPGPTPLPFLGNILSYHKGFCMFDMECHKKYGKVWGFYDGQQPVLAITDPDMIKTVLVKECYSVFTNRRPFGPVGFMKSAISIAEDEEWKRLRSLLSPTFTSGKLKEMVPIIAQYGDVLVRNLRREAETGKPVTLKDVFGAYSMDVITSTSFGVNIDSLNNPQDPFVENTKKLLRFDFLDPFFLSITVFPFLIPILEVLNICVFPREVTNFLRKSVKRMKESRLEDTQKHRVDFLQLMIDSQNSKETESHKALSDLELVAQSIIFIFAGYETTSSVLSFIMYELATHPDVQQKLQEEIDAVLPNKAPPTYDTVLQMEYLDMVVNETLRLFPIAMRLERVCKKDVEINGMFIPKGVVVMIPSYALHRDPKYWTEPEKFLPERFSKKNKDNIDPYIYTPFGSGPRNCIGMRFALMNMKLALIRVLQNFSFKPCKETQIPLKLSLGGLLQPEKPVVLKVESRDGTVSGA

On to `CCCOC(=O)c1cc(NC(=O)/C=C/c2ccccc2)ccc1O`, for which the CC50 in assay [1] was 20.4 µM (active).

Take `CC1=Nc2ncnn2C(c2cccnc2)/C1=C(\O)OC1CCCCC1` (stereo not given): the results for the EC50 in assay [2] and in [4] were 2.35 µM (active) and > 60 µM (not active), respectively. Moreover, the half-maximal activity concentration (AC50) in assay [3] is 36.1 µM (active).

For `Cc1c(NCc2cc(Cl)cc(Cl)c2O)c(=O)n(-c2ccccc2)n1C`, the EC50 in [5] was 21.1 µM (active); in assay [6], 4.76 µM (active); in assay [7] it was > 150 µM (not active).

With `CC(=O)N1CCOc2cc(S(=O)(=O)NCc3ccc(F)cc3)c(C)cc21`, the AC50 in assay [8] is > 70 µM (inactive).

As to `COc1cc2c(cc1OC)CN(C(=O)c1ccc3[nH]c(C)c(C)c3c1)CC2`, the CC50 in assay [1] is > 50 µM (active).

In the case of `COC(=O)c1ccc(NCc2c(O)ccc(O)c2Br)cc1Cl`, the IC50 in assay [9] was 57.6 µM (active).

`O=c1c2sccc2[nH]c(=S)n1-c1ccccc1`: in assay [10], the IC50 was > 20 µM (inactive).

`Cc1ccc(C2CC(c3ccccc3OC(F)F)Nc3ncnn32)cc1` (stereo not given): the EC50 in assay [11] and in assay [12] was > 112 µM (not active) each time.

As to `COc1ccc(Cl)cc1C(=O)NCc1ccc2c(c1)OCO2`, the half-maximal cytotoxic concentration (CC50) in [1] was 34.4 µM (active).

With `COc1ccc(C(=O)NC(=S)NC(C)(C)C)cc1Br`, the EC50 in assay [11] and in assay [12] was > 112 µM (not active) throughout. The AC50 in [13] is 14.1 µM (inconclusive).

Regarding `Cc1ccccc1C1CC(c2ccccc2OC(F)F)Nc2ncnn21` (stereo not given), the EC50 in [11] and in assay [12] was > 112 µM (not active) each time.

Take `Cc1ccccc1CCNC(=O)C1CCN(S(=O)(=O)c2ccc(-n3cnnn3)cc2)CC1`: the 50% effective concentration (EC50) in [11] and in [12] was > 112 µM (not active) throughout.

As to `Cc1ccc(S(=O)(=O)NCCC(=O)OCC(=O)NC(=O)c2cccn2C)cc1`, the EC50 in assay [11] and in [12] was > 112 µM (not active) in each case.

Turning to `Cc1cccc(-n2cnc3c(sc4nc(N5CCOCC5)c5c(c43)CCCC5)c2=O)c1`, the values for the EC50 in assay [11] and in [12] were > 112 µM (not active) and 50 µM (active), respectively.

On to `CCCCC(=O)Nc1ncc([N+](=O)[O-])s1`, for which the results for the EC50 in [14] and in assay [15] were > 160 µM (inactive) and 0.141 µM (active), respectively.

For `CN(/N=C/c1ccc(O)cc1O)c1nc(-c2ccccc2)cc(-c2ccccc2)n1`, in assay [3], the AC50 is 26.9 µM (active).

Regarding `CCCc1cc(C(=O)NC2CCCC2)no1`, the EC50 in assay [11] and in assay [12] was > 112 µM (not active) each time.

Regarding `O=C(Oc1ccc(Cl)c2cccnc12)c1cccc([N+](=O)[O-])c1`, the results for the EC50 in [14] and in [15] were 19.9 µM (inconclusive) and > 38 µM (not active), respectively.

With `Cc1cccc(NC(=O)NC2CCCCCCC2)c1`, the EC50 in assay [14] is 24.8 µM (active); in assay [15] it was > 38 µM (not active).

Regarding `Cc1cccc(/N=C2/Sc3nc4c(C)c(C)ccc4cc3CN2CCN2CCOCC2)c1`, in [1], the CC50 was 16.1 µM (active).

As for `Cc1cccc(CCNC(=O)c2cc(S(=O)(=O)N3CCOCC3)cn2C)c1`, the concentration giving a half-maximal response (EC50) in assay [11] and in assay [12] was > 112 µM (not active) throughout.

On to `O=C(C(=O)N1CCOCC1)c1cn(Cc2ccc(F)cc2)c2ccccc12`, for which the IC50 in assay [10] is > 20 µM (inactive).

For `O=C(CCN1CCN(C/C=C/c2ccccc2)CC1)Nc1ccc(Cl)cc1`, the IC50 in [16] is 34.6 µM (active).

In the case of `CC1CCCCN1Cc1nc2c(c(=O)n(C)c(=O)n2C)n1CCCc1ccccc1` (stereo not given), the EC50 in assay [11] and in assay [12] was > 112 µM (not active) throughout.

Regarding `CN(C1=NC(=O)C(CC(=O)Nc2ccc(Br)cc2)S1)c1ccc(O)cc1` (stereo not given), the EC50 is > 120 µM (not active) in assay [17], 66.4 µM (active) in [18] and 23.8 µM (active) in [19]. The CC50 in [1] was 36 µM (active).

`Cc1cc(C)c(S(=O)(=O)Nc2cccc(-n3cnnn3)c2)c(C)c1`: the values for the EC50 in [14] and in assay [15] were 29.6 µM (active) and 10.9 µM (active), respectively.

In the case of `CN(C)c1ccc(/C=C2/NC(=O)NC2=O)cc1`, the IC50 in assay [9] is 51.2 µM (active).

`COCCSc1nnc(NC(=O)CCS(=O)(=O)Cc2ccccc2)s1`: in assay [16], the IC50 is 45.5 µM (active).

As to `O=C(OCC#CCSc1nnc(-c2ccccc2)o1)c1ccco1`, the IC50 in [16] is 21.1 µM (active).

Regarding `COC(=O)N/N=C/c1c[n+]([O-])c2ccccc2[n+]1[O-]` [CARBADOX], the EC50 in assay [5] was > 150 µM (not active); in assay [6] it was 9.12 µM (active); in assay [7] it was 11.5 µM (active).

For `Cc1cccc(-n2ncc3c2CCCC3NC(=O)CCN2Cc3ccccc3C2=O)c1C` (stereo not given), the half-maximal effective concentration (EC50) in [5], in [6] and in assay [7] was > 150 µM (not active) throughout.

`CN(C)c1ccc(NC(=O)CCN2C(=O)c3cccc([N+](=O)[O-])c3C2=O)cc1`: in assay [9], the IC50 is 86.5 µM (active).

As for `COc1ccccc1C1=Nn2c(nnc2C2CCCCC2)SC1`, the half-inhibitory concentration (IC50) in assay [16] was 12.1 µM (active).

With `Cc1ccc(NC(=S)NC(=O)C2CC2)cc1Cl`, the EC50 was > 160 µM (inactive) in [14] and 3.32 µM (active) in assay [15].

Regarding `O=C(CSC(=S)N1CCOCC1)c1cc(Br)cc(Br)c1O`, the EC50 in assay [5] was > 150 µM (not active); in [6], 25 µM (active); in [7], > 150 µM (not active).

For the compound `O=C(Nc1ccccc1)N1CCN(c2nc(-c3ccccc3)ns2)CC1`, the IC50 in assay [10] was > 20 µM (inactive).

With `O=C(Cc1ccc(Br)cc1)Nc1nc2ccccc2[nH]1`, the EC50 in assay [5], in assay [6] and in [7] was > 150 µM (not active) each time.

As to `CCCc1cc(C(=O)Nc2ccc(C(=O)c3ccc(F)cc3)cc2)n(C)n1`, the EC50 in assay [5] was 46.9 µM (active); in assay [6], 19.7 µM (active); in assay [7], > 150 µM (not active).

Regarding `O=C(Nc1ccc(Cl)cc1)c1ccc(-n2cncn2)c([N+](=O)[O-])c1`, in assay [1], the CC50 was 20.6 µM (active).

Consider `O=C(c1ccc(F)cc1)N1CCN2C(=O)c3ccccc3C12c1ccc(Cl)cc1` (stereo not given), for which the CC50 in assay [1] was 29 µM (active).

For the compound `CCOc1ccc(NC(=O)CN(C)C(=O)C2CC(=O)N(c3ccc4c(c3)OCCO4)C2)cc1OCC` (stereo not given), the 50% effective concentration (EC50) in assay [5], in assay [6] and in [7] was > 150 µM (not active) each time.
